# Values quoted from earlier work in patent US20170333404A1, “IMPROVED FORMULATIONS OF VEMURAFENIB AND METHODS OF MAKING THE SAME” (DISPERSOL TECHNOLOGIES, LLC, priority 2014, published 2017).
# Assays:
# [1] = test system: BRAFV600E/K mutant advanced or malignant melanoma; conditions: Trametinib arm
# [2] = compared to the crystalline form
# [3] = not given; remark: listed apart in the source
# [4] = test system: advanced melanoma
# [5] = test system: melanoma cell lines
# [6] = test system: V600E mutation in b-raf; conditions: patients with a V600E mutation in b-raf
# [7] = test system: melanoma; conditions: at 5 years, adjuvant treatment
compound,measurement,setting,value
CC(=O)Nc1cccc(-n2c(=O)n(C3CC3)c(=O)c3c(Nc4ccc(I)cc4F)n(C)c(=O)c(C)c32)c1 [Trametinib],Grade 3 adverse effect: hypertension,[1],12%
same,Grade 3 adverse effect: rash,[1],7%
"CCCS(=O)(=O)Nc1ccc(F)c(C(=O)c2c[nH]c3ncc(-c4ccc(Cl)cc4)cc23)c1F [amorphous form of vemurafenib, vemurafenib]",solubility in water,[2],improved solubility in water
CCCS(=O)(=O)Nc1ccc(F)c(C(=O)c2c[nH]c3ncc(-c4ccc(Cl)cc4)cc23)c1F [vemurafenib],"arthralgia, patients","BRIM-2, 132 patients",58%
same,"photosensitivity, patients","BRIM-2, 132 patients",52%
same,"skin rash, patients","BRIM-2, 132 patients",52%
same,patients in whom dose modification was necessary,"BRIM-2, to manage side effects",45%
same,patients with skin lesions that may need surgical removal,[3]; at MTD of 960 mg twice a day,31%
same,maximum tolerated dose (MTD),[3]; patients,960 mg twice a day
same,patients with reduced numbers of cancer cells,[4]; group of 16 patients with advanced melanoma,over half
same,median increased survival time over the control group,[4]; treated group vs control group,6 months
same,programmed cell death,[5]; melanoma cell lines,cause programmed cell death
same,inhibition of melanoma cells,[5]; melanoma cells without BRAF V600E/V600K mutations,not inhibited
same,patients showing partial to complete regression,[6],~80%
interferon,increase in survival,[7],3%
